# From article PMC11031283 (ACS synthetic biology, 2024)
# Target: EncM (Streptomyces maritimus, UniProt Q9KHK2)
# Test: LC-MS product formation, low activity
# Format: biochemical
# Conditions: in vitro purified enzyme; not detected in lysate
smiles,measurement,value
"CCCCCc1cc(O)c(C/C=C(\C)CCC=C(C)C)c(O)c1C(=O)O [compound 3, cannabigerolic acid]","LC-MS product formation, low activity","several other enzymes had low activity not detected in lysate assays, including EncM"
